Measured values: US20240300932A1, “N-PHENYLIMINE DERIVATIVE AND PREPARATION METHOD AND USE THEREOF” (Guizhou University, priority 2023, published 2024)

Tested on: broad-leaf weeds
Experiment: Post-emergence herbicidal activity test, broad-leaf weeds as a group
Format: in vivo
Details: 10 a.i.g/mu
Experimental: The weeds were cultivated in a 180 mm×140 mm plastic nutrient pot by a pot-culture method, placed in an enamel tray, and the plastic nutrient pots were filled with surface soil (⅘ of a depth) collected from a farmland and air-dried and sieved, and a soil humidity was controlled at 20% in the initial stage. Weed seeds with plump and uniform grains were selected, soaked in warm water at 25° C. for 6 h, and germinated in a biochemical incubator (dark) at 28° C. The freshly exposed weed seeds were evenly placed on the soil surface, and then covered with 0.5 cm to 1 cm of soil according to the size of the seeds. The weeds are cultivated in a controlled sunlight greenhouse at 20° C. to 30° C., under natural light, and a relative humidity of 57% to 72%. […]
2 weeks after sowing, the test plants were treated at the 2- to 3-leaf stage: the compounds of the present disclosure for testing were dissolved in acetone separately, and added with Tween 80, an emulsifiable oil of 1.5 liters/ha methyl oleate was added as a synergist, and an obtained mixture was diluted with certain water to a certain concentration solution. […] After spraying, the weeds were cultivated in the greenhouse for 3 weeks, and the experimental effects on the weeds were counted. […]

SMILES: C#CCN1C(=O)COc2cc(F)c(N3C(=O)C4=C(CCCC4)C3=O)cc21 [flumioxazin]
- control effect against broad-leaf weeds: 100%
